Structures are written as SMILES. Active and inactive are the calls of the source. No cut-off for these calls is given here.

The term IC50 denotes the concentration that gives 50% inhibition. For orientation: Ki means the dissociation constant of the complex between target and ligand, obtained from inhibition or displacement.

The target of test [1] is T1, Protease (Human immunodeficiency virus 1, UniProt Q9YQ12). Put plainly: Inhibition of recombinant HIV1 protease after 30 mins by reverse phase HPLC.
The target in test [2] is Protease (Human immunodeficiency virus 1) (UniProt Q9YQ12). Put plainly: (§1) Inhibition of HIV1 protease dimerization by Zhang-Poorman kinetic assay.
The target of test [3] is T1, Protease. Put plainly: Competitive inhibition of HIV1 protease by Lineweaver-Burke plot analysis.
Test [4] has as its target T1, Protease. The description is as §1.
Test [5] deals with T1, Protease. Description: Inhibition of HIV1 protease.
Test [6] addresses Human immunodeficiency virus type 1 integrase (Human immunodeficiency virus 1, UniProt Q7ZJM1). Description: Inhibition of HIV1 integrase strand transfer activity.
Test [7] in a line: Inhibition of HIV2 protease. Also noted: species or system Human immunodeficiency virus 2.

Regarding `CC(C)=CCC/C(C)=C/CC/C(=C/Cc1cc(O)ccc1O)C(=O)O` [GANOMYCIN B], the IC50 on Protease [1] was 2.9 µM. Also, in test [2], the inhibition result is “inactive”. At Protease [3], this molecule came in with a Ki of 4 µM.
As to `CC1=CC[C@H]([C@@H](C)[C@H]2CC[C@@]3(C)C4=C(C=C5C=CC(=O)OC(C)(C)[C@@H]5CC4)CC[C@]23C)OC1=O` [SCHISANLACTONE A], the affinity at Protease [4] corresponds to a Ki of 17.5 µM.
At Protease [5], `CC(C)c1cc2c(c(O)c1O)[C@@]1(C(=O)O)CCCC(C)(C)[C@@H]1CC2` [CARNOSIC ACID] had an IC50 of 0.24 µM.
As for `COc1cc(/C=C/C(=O)CC(=O)/C=C/c2ccc(O)c(OC)c2)ccc1O` [CURCUMIN], the IC50 is 40 µM in test [6], 100 µM against Protease [5] and 250 µM in test [7].
For the molecule `CC(C)=CCC/C(C)=C/CCC1=C[C@@H](c2cc(O)ccc2O)OC1=O` [GANOMYCIN I], the IC50 at Protease [1] was 21.9 µM.

(Values after ChEMBL document CHEMBL1154341, “Inhibition of the dimerization and active site of HIV-1 protease by secondary metabolites from the Vietnamese mushroom Ganoderma colossum” (J Nat Prod, 2009).)
